In assay [1] the target is Adenosine receptor A2a (Mus musculus, UniProt Q60613). Description: Displacement of [3H]2-[p-(2-carboxyethyl)phenyl-ethylamino]-5'-N-ethylcarboxamidoadenosine from mouse recombinant adenosine A2A receptor expressed in HEK293 cells. The class given is cell-based. (In general: In a radioligand displacement assay an active substance lowers the binding of a labelled ligand.)

In another assay the target is T1, Adenosine receptor A1 (Mus musculus, UniProt Q60612).
T1 sequence (Q60612 whole entry): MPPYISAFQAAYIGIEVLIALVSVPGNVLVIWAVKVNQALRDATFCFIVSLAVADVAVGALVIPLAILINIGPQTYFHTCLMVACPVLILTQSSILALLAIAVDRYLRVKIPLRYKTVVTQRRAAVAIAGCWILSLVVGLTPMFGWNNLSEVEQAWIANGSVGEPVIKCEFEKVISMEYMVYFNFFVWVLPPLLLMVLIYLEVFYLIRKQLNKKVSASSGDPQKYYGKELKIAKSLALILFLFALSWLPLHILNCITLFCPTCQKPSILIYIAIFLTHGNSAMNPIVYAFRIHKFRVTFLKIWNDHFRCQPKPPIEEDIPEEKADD
Description: Displacement of [125I]N6-(4-amino-3-iodobenzyl)adenosine-5'-N-methyl-uronamide from mouse recombinant adenosine A1 receptor expressed in HEK293 cells. The class given is cell-based.

A further assay deals with T2, Adenosine receptor A2b (Mus musculus, UniProt Q60614).
T2 sequence (Q60614 whole entry): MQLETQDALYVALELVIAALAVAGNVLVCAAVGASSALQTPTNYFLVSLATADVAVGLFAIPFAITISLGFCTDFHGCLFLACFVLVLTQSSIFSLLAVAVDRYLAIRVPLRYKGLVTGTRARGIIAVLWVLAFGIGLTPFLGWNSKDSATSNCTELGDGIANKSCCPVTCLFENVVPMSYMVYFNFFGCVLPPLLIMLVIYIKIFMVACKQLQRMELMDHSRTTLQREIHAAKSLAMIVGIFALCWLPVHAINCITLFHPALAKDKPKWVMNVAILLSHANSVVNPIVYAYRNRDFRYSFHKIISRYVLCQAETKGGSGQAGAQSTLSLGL
Description: Activation of mouse adenosine A2B receptor.

A further assay deals with T3, Adenosine receptor A3 (Mus musculus, UniProt Q61618).
T3 sequence (Q61618 whole entry): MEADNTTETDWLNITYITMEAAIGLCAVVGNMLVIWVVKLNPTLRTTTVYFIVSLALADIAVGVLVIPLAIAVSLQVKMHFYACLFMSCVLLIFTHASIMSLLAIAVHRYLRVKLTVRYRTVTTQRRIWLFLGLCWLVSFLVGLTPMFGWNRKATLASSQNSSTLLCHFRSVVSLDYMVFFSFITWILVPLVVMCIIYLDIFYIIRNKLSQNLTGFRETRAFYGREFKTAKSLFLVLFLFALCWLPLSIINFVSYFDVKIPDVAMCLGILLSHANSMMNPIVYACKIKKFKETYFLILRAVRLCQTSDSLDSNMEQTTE
Put plainly: Displacement of [125I]N6-(-amino-3-iodobenzyl)adenosine-5'-N-methyl-uronamide from mouse recombinant adenosine A3 receptor expressed in HEK293 cells. Format: cell-based.

Assay [2] addresses Adenosine receptor A2a (Homo sapiens, UniProt P29274). Description: Displacement of radioligand from human A2A adenosine receptor expressed in HEK293 cells at 10 uM. Format: cell-based.
The target of assay [3] is Adenosine receptor A2a (Rattus norvegicus, UniProt P30543). Put plainly: Displacement of radioligand from rat adenosine A2A receptor.
Chain of Adenosine receptor A2a (Rattus norvegicus, UniProt P30543) (P30543 whole entry): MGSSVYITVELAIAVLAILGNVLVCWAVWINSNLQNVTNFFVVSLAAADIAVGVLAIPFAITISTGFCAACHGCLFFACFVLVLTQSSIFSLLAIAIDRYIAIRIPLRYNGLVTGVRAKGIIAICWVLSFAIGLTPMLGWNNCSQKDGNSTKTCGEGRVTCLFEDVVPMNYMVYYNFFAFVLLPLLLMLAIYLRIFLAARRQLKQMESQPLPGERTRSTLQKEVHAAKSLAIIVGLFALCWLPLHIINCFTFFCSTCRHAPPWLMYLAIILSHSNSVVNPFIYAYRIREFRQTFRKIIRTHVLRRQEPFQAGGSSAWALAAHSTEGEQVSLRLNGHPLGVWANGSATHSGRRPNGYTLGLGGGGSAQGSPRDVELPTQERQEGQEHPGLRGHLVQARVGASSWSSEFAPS

Broadly, the Ki is the dissociation constant of the complex between target and ligand, obtained from inhibition or displacement. One may read the EC50 as the midpoint of the concentration-response curve. A higher EC50 goes with lower potency in that assay. As usually defined, the inhibition is the change of the read-out against control, counted positive when it falls. A lower inhibition goes with a response near the control.

Chain of Adenosine receptor A2a (Mus musculus, UniProt Q60613) (Q60613 whole entry): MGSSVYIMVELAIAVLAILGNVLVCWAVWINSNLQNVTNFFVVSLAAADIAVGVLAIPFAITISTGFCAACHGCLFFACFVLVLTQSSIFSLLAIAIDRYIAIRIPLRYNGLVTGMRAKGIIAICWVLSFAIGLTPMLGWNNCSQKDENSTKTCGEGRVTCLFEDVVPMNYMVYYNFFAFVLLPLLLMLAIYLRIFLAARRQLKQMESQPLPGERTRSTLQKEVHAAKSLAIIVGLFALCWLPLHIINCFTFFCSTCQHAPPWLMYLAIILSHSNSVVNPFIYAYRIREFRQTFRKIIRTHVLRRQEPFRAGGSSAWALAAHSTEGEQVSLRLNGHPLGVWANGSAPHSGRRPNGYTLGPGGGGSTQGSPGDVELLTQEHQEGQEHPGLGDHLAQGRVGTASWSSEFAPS
Chain of Adenosine receptor A2a (Homo sapiens, UniProt P29274) (P29274 whole entry): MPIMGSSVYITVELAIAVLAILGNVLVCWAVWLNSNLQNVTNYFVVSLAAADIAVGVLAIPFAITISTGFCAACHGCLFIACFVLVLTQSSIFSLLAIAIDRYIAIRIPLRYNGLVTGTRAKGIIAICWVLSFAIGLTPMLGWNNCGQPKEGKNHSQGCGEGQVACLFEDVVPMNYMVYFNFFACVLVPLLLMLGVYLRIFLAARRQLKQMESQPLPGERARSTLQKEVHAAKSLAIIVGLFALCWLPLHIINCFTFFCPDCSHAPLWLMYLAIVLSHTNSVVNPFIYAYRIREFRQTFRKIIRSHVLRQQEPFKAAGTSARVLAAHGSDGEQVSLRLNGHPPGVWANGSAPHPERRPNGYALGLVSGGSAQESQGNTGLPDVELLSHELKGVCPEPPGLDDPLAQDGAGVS

With `CNC(=O)[C@H]1O[C@@H](n2cnc3c(NCc4cccc(I)c4)nc(Cl)nc32)[C@H](O)[C@@H]1O` [NAMODENOSON], the Ki at Adenosine receptor A2a [1] was 10000 nM; at Adenosine receptor A1, 35 nM. In addition, the EC50 at Adenosine receptor A2b is ≥ 10000 nM.
With `CNC(=O)[C@H]1O[C@@H](n2cnc3c(NCc4cccc(I)c4)ncnc32)[C@H](O)[C@@H]1O` [IB-MECA], the Ki on Adenosine receptor A2a [1] came to 1000 nM; at Adenosine receptor A1, 5.9 nM; on Adenosine receptor A3, 0.087 nM. Further, at Adenosine receptor A2b, the EC50 is ≥ 10000 nM.
Molecule `CNC(=O)[C@@]12C[C@@H]1[C@@H](n1cnc3c(NC)nc(Cl)nc31)[C@H](O)[C@@H]2O` returned an inhibition at Adenosine receptor A2a [2] of 6%. For the same molecule, the Ki on Adenosine receptor A2a [3] is > 10000 nM; at Adenosine receptor A1 it was 55.3 nM; on Adenosine receptor A3, 49 nM.

The record behind these values is ChEMBL document CHEMBL1145629, “Design of (N)-methanocarba adenosine 5'-uronamides as species-independent A3 receptor-selective agonists” (Bioorg Med Chem Lett, 2008).
